Data taken from US11820782B2, “Salt forms of amino pyrazine purine based selective kinase inhibitor” (FTG BIO LLC, priority 2018, dated 2023).
pIC50: −log10 of the molar value. Values after ≈ are worked out from the molar mass of the structure shown.

Key:
[1] = system: MDA-MB-231 (breast cancer); assay: Anti-proliferative effect, MDA-MB-231; assay type: cell-based
Procedure: (§1) All in vitro experiments like protein binding, microsomal stability, cell cytotoxicity were performed as per study protocols of respective experiments.

[2] = 1 week stability of shortlisted salts at 40° C./75% RH, open; assay type: physicochemical; details: after 7 days at 40° C./75% RH, open
[3] = pH vs solubility study (RP-HPLC); assay type: physicochemical; details: listed as Free base
Procedure: In 2 mL volume of buffers (ranging from pH 1.2 to 7.4) and purified water, compound (either free base or esylate or oxalate) was added with increments until the compound doesn't dissolve further in the medium and compound remains undissolved or excess in the solution. The samples were kept for overnight at ambient room temperature to saturate/equilibrate. The dispersions were filtered through 0.45 μm PVDF or nylon membrane filters and the filtrates were analysed using RP-HPLC for determination of solubility of compounds in various buffers and purified water.

[4] = Hygroscopicity (dynamic vapor sorption); assay type: physicochemical
Procedure: Sorption isotherms were obtained using a VTI-SA+-moisture sorption analyzer from TA instruments. The sample temperature was maintained at 25° C. by the instrument controls. The humidity was controlled by mixing the streams of dry and wet nitrogen, with a total flow rate of 200 mL/minute. The weight change of the sample as a function of % RH was constantly monitored by microbalance.
Typically, 5 to 20 mg of the sample was weighed under ambient conditions in a tared mesh stainless steel basket. The sample was loaded and unloaded at 40% RH and 25° C. A moisture sorption isotherm was performed as outlined. The standard isotherm was performed at 25° C. at 10% RH intervals over a 0 to 90% RH range. Sample was dried at 40° C. from ambient room conditions to 0% RH.

[5] = system: Mouse plasma; assay: Plasma protein binding, mouse; assay type: in vitro ADME
Procedure: as §1

[6] = Microsomal stability, PHLM; assay type: in vitro ADME; details: pooled human liver microsomes
Procedure: as §1

[7] = Intravenous and per oral pharmacokinetics in male Sprague Dawley rats; assay type: in vivo, Sprague Dawley (SD) rats
Procedure: (§2) The husbandry conditions were maintained as described in animal facility SOPs during the study period. Animals procured were quarantined for 7 days followed by acclimatization for 5 days. The study was carried out for two days. Male Balb/c mice of age 10-12 weeks (18-25 g) and male Sprague Dawley rats 8-10 weeks (220-280 g) were used. The food was with held for a period of 4-12 hr prior to dosing and returned to all animals 4h post dosing and water supplied ad libitum. The doses of FT1518 were as follows: Mice: 10 mg/kg intravenous (i.v) and 50 mg/kg oral (p.o); rat—5 mg/kg intravenous (i.v) and 10 mg/kg oral (p.o). The formulation used in i.v and p.o studies were 10% dimethylsulfoxide (DMSO)+30% polyethyleneglycol 400 (PEG400)+60% water and 0.5% methylcellulose (MC)+0.1% tween 80. Blood was collected at the predetermined time points in mice (cardiac puncture) and Jugular vein (rats) over a period of 24h in eppendorf tubes containing K2EDTA as anticoagulant. The plasma was isolated from the blood and stored at −80° C. until bioanalysis.
Intravenous and Per Oral Pharmacokinetic Profile of FT1518 (Base); FT1518-Esylate Salt and FT1518-Oxalate Salt in Male Sprague Dawley (SD) Rats Species: SD rats Gender: Male Dose: IV (5 mg/kg), Single dose • PO (10 mg/kg), single dose Formulation: • IV—DMSO: PEG400:Water (10:30:60 v/v) • PO— 0.5% methylcellulose and 0.1% Tween 80 in water Sampling Time Points: • IV: 5 min, 15 min, 30 min, 1 h, 2, 4, 8 and 24 h post dose • PO: 10 min, 15 min, 30 min, 1 h, 2, 4, 8 and 24 h post dose. PK analysis: Phoenix software (Pharsight product). Noncompartmental Analysis (NCA) was used to estimate the PK parameters

[8] = system: Human Plasma; assay: Plasma protein binding, human; assay type: in vitro ADME
Procedure: as §1

[9] = Equilibrium solubility in pH 6.8 0.01M phosphate buffer by HPLC; assay type: physicochemical; details: pH6.8 0.01M potassium dihydrogen phosphate buffer, listed as Free base of FT-1518
[10] = Intravenous and per oral pharmacokinetics in male Balb/c mice; assay type: in vivo
Procedure: as §2, with “bioanalysis. Species: BALB/C mice Gender: Male Dose: IV (10 mg/kg), Single dose • PO (50 mg/kg), single dose Formulation: • IV—DMSO: PEG400:Water (10:30:60 v/v) • PO— 0.5% methylcellulose and 0.1% Tween 80 in water Sampling Time Points: • IV: 5 min, 30 min, 1 h, 2, 4, 8 and 24 h post dose • PO: 10 min, 30 min, 1 h, 2, 4, 8 and 24 h post dose. PK analysis: Phoenix software (Pharsight product). Noncompartmental Analysis (NCA) was used to estimate the PK parameters. FIG. 56 depicts a pharmacokinetic profile of FT-1518 base in mice. Table 31 summarizes PK parameters used in a pharmacokinetic profile with intravenous dose in mice and Table 32 summarizes PK parameters used in a pharmacokinetic profile with per oral dose in mice.” for “bioanalysis.”

[11] = IV dose (5 mg/kg), single dose, male SD rats
[12] = PO dose (10 mg/kg), single dose, male SD rats, 10 mg/kg
[13] = IV dose (10 mg/kg), single dose, male Balb/c mice
[14] = PO dose (50 mg/kg), single dose, male Balb/c mice, 50 mg/kg

Structure (SMILES): CCC(CC)n1cnc2c(-c3cnc(N)cn3)nc(N3CC4CCC(C3)O4)nc21 [FT-1518 base]
- pIC50 [1]: < 4.52
- % purity ([2]; HPLC): 97.82%
- XRD ([2]; physical form vs initial): Same as initial form
- Solubility ([3]; Water, overnight, ambient room temperature): 120 µg/mL (≈ 304 µM)
- Solubility ([3]; pH 1.2 HCl): >50250 µg/mL
- Solubility ([3]; pH 3.0 Citrate buffer): 2110 µg/mL (≈ 5350 µM)
- Solubility ([3]; pH 4.0 Acetate buffer): 340 µg/mL (≈ 862 µM)
- Solubility ([3]; pH 5.0 Acetate buffer): 140 µg/mL (≈ 355 µM)
- Solubility ([3]; pH 6.8 Phosphate buffer): 110 µg/mL (≈ 279 µM)
- Solubility ([3]; pH 7.4 Phosphate buffer): 100 µg/mL (≈ 253 µM)
- hygroscopicity ([4]; normal room temperature / ambient conditions): non-hygroscopic
- hygroscopicity ([4]; sorption cycle 0 to 95% RH at 25° C.): slightly hygroscopic. As there was no
- moisture uptake ([4]; up to 70% RH, 25° C.): There was about <2% moisture uptake up
- plasma protein binding, mouse plasma [5]: ✓ FT1518, FT1518-Esylate and FT1518-Oxalate showed moderate plasma protein binding in both mouse and human plasma
- % Bound, Mouse plasma ([5]; 10 μM (n = 4)): 91.52%
- Invitro T1/2, PHLM ([6]; 3 μM (n = 3)): >60 min
- stability in PHLM [6]: ✓ FT1518, FT 1518-Esylate and FT1518-Oxalate was highly stable in PHLM and RLM
- clearance as % of SD rat liver blood flow ([7]; IV 5 mg/kg, SD rats): ~42%
- AUC0-∞ [7, 11]: 3905 ± 1334 ng·h/mL
- Cl [7, 11]: 23.3 ± 10 mL/min/kg
- Bioavailability (% F) ([7]; PO dose (10 mg/kg) vs IV 5 mg/kg, male SD rats): 44%
- Tmax ([7]; PO dose (10 mg/kg), single dose, male SD rats): 30 min
- AUC (AU C0^.oo) [7, 12]: 3422 ± 684 ng·h/mL
- Cmax [7, 12]: 1592 ng/mL
- plasma protein binding, human plasma [8]: ✓ FT1518, FT1518-Esylate and FT1518-Oxalate showed moderate plasma protein binding in both mouse and human plasma
- % Bound, Human Plasma ([8]; 10 μM (n = 4)): 97.32%
- Solubility in pH 6.8 buffer [9]: 0.02 mg/mL
- clearance as % of mouse liver blood flow ([10]; IV 10 mg/kg, mice): ~30%
- AUC0-∞ [10, 13]: 7637 ± 2021 ng·h/mL
- Cl [10, 13]: 23.3 ± 8.3 mL/min/kg
- Bioavailability (% F) ([10]; PO dose (50 mg/kg) vs IV 10 mg/kg, male Balb/c mice): 68 % F
- AUC0-∞ [10, 14]: 25801 ± 404 ng·h/mL
- Cmax [10, 14]: 8761 ± 718 ng/mL
- Tmax [10, 14]: 12 min
